Assay results published in patent US7534782B2, “Crystal of 1-methylcarbapenem solvate” (Sankyo Company, Limited, priority 2003, dated 2009).
Where two headings read alike, the source gives them in different places.

Columns and labels:
[1] = storage stability of the crystalline forms; assay type: physicochemical
[2] = system: Gram-negative bacterial strains and Gram-positive bacterial strains; details: cited from earlier work

C[C@@H](O)[C@H]1C(=O)N2C(C(=O)O)=C(S[C@H]3C[C@@H](C(=O)N4CC[C@H](NC(=O)CNC(=N)N)C4)N(C)C3)[C@H](C)[C@H]12 [Crystalline form (I-2), (1R,5S,6S)-2-[(2S,4S)-2-[(3S)-3-(2-Guanidinoacetylamino)pyrrolidin-1-ylcarbonyl]-1-methylpyrrolidin-4-ylthio]-6-[(1R)-1-hydroxyethyl]-1-methyl-1-carbapen-2-em-3-carboxylic acid tetrahydrate]
stability during storage under conditions of normal or high humidity [1]: stable during storage

C[C@@H](O)[C@H]1C(=O)N2C(C(=O)O)=C(S[C@H]3C[C@@H](C(=O)N4CC[C@H](NC(=O)CNC(=N)N)C4)N(C)C3)[C@H](C)[C@H]12 [compound (I), (1R,5S,6S)-2-[(2S,4S)-2-[(3S)-3-(2-guanidinoacetylamino)pyrrolidin-1-ylcarbonyl]-1-methylpyrrolidin-4-ylthio]-6-[(1R)-1-hydroxyethyl]-1-methyl-1-carbapen-2-em-3-carboxylic acid]
antibiotic activity [2]: excellent antibiotic activity | antibiotic activity ([2]; listed as 1-methylcarbapenem compound of formula (I)): potent antibiotic activity

C[C@@H](O)[C@H]1C(=O)N2C(C(=O)O)=C(S[C@H]3C[C@@H](C(=O)N4CC[C@H](NC(=O)CNC(=N)N)C4)N(C)C3)[C@H](C)[C@H]12 [Crystalline form (I-3), (1R,5S,6S)-2-[(2S,4S)-2-[(3S)-3-(2-Guanidinoacetylamino)pyrrolidin-1-ylcarbonyl]-1-methylpyrrolidin-4-ylthio]-6-[(1R)-1-hydroxyethyl]-1-methyl-1-carbapen-2-em-3-carboxylic acid ethanolate trihydrate]
stability during storage under conditions of normal or high humidity ([1]; trihydrate): remains stable during storage

C[C@@H](O)[C@H]1C(=O)N2C(C(=O)O)=C(S[C@H]3C[C@@H](C(=O)N4CC[C@H](NC(=O)CNC(=N)N)C4)N(C)C3)[C@H](C)[C@H]12 [Crystalline form (I-1), (1R,5S,6S)-2-[(2S,4S)-2-[(3S)-3-(2-Guanidinoacetylamino)pyrrolidin-1-ylcarbonyl]-1-methylpyrrolidin-4-ylthio]-6-[(1R)-1-hydroxyethyl]-1-methyl-1-carbapen-2-em-3-carboxylic acid ethanolate]
storage stability under dry conditions ([1]; dry conditions): improved storage stability
